Measured values published in US9751896B1, “Asymmetric 7-N isatin dimer Schiff base compounds with antitumor activities and a method of preparing the same” (SHAANXI UNIVERSITY OF SCIENCE AND TECHNOLOGY, priority 2016, dated 2017).

Assays:
[1] = tested on: human hepatoma cells (HepG2); experiment: Tumor cell proliferation inhibition test (MTT), HepG2; format: cell-based; conditions: 48 hours treatment, read-out: Half Inhibitory Concentration IC50 HepG2
Procedure: (§1) The compounds of the present invention were subjected to tumor cell proliferation inhibition test, and conventional MTT method was used.
(§2) Cell lines: human hepatoma cells (HepG2), human lung cancer cells (A-549), human gastric cancer cells (SGC-7901). The culture medium was DMEM+15% NBS+double antibody.
(§3) Sample solution preparation: after dissolving with DMSO (Merck), PBS (−) was added to obtain 100 μmol/L solution or homogeneous suspension. The solution was diluted with PBS (−) in DMSO to a final concentration of 0.1, 1, 10, 20, 40, 60, 80, 100 μmol/L.
(§4) Antitumor drug cytarabine (Ara-C) was used as control solution, prepared under the same condition.
(§5) Cell culture: adherent growth Tumor cells were cultured in 1640 medium containing 10% inactivated neonatal bovine serum and penicillin, streptomycin (1 million U/L), placed in carbon dioxide incubator at 37° C., 5% CO2, and saturated humidity. Cells were treated serially passaged 2-3 times. The first culture was washed with PBS 2 times, and digested with trypsin. Fresh culture medium was added evenly, cells were adjusted to a appropriate concentration and transferred into a new culture flask. Cell in an exponential phase were chosen for the tests.
(§6) MTT Assay for Cell Viability and IC50 Determination:
(§7) Experimental Principle: Living cells mitochondria in the dehydrogenase can reduce yellow MTT to water-insoluble blue-violet product MT (MTT formazan), deposited in the cells. The amount of production is proportional to the number of living cells. […] DMSO can dissolve blue violet crystals, and the color depth is proportional to the amount contained, so the absorbance measured by the microplate reader can reflect the cell viability.
(§8) Methods: The exponential phase cells were digested and counted and seeded in 96-well plates at a density of 2×10^4/mL at 100 μl per well. After 24 hours of incubation, the cells to be tested were treated with 0.1, 1, 10, 20, 40, 60, 80, 100 μmol/L of the compounds. Each experimental group had 5 wells in each concentration, and the culture medium containing 0.4% DMSO was used as control. After 48 hours, the supernatant was discarded, and 100 μl of MTT ((2-(4,5-dimethyl-2-thiazolyl)-3,5-diphenyl-2H-[…]) (1 mg/mL) was added to each well. After another 4 hours, the supernatant was discarded, and 100 μl of DMSO was added to each well. After mixing, the absorbance was measured at 570 nm using a microplate reader. An IC50 calculation software was used to determine the half inhibitory concentration (IC50).

[2] = tested on: human lung cancer cells (A-549); experiment: Tumor cell proliferation inhibition test (MTT), A-549; format: cell-based; conditions: A549 cells, 48 hours treatment, read-out: Half Inhibitory Concentration IC50 A549
Procedure: as §1, §2, §3, §4, §5, §6, §7, §8

[3] = tested on: human gastric cancer cells (SGC-7901); experiment: Tumor cell proliferation inhibition test (MTT), SGC-7901; format: cell-based; conditions: SGC-7901 cells, 48 hours treatment, read-out: Half Inhibitory Concentration IC50 SGC-7901
Procedure: as §1, §2, §3, §4, §5, §6, §7, §8

Row | IC50 [1] [µM] | IC50 [2] [µM] | IC50 [3] [µM] | melting point [°C] | SMILES
1 | 28.7 ± 0.4 |  | 46.9 ± 0.85 | 195.6 | CCN1C(=O)/C(=N\N=C2/C(=O)N(C)c3ncccc32)c2cccnc21 [Compound 5]
2 | > 100 | > 100 | > 100 | 191.9 | CCN1C(=O)/C(=N\N=C2/C(=O)N(C(C)C)c3ncccc32)c2cccnc21 [Compound 6]
3 | 98.6 ± 3.23 | > 100 | > 100 | 182.5 | CC(C)N1C(=O)/C(=N\N=C2/C(=O)N(C)c3ncccc32)c2cccnc21 [Compound 7]

Further lines, the compound ahead of its results:

Row | SMILES | IC50 [1] [µM] | IC50 [2] [µM] | IC50 [3] [µM] | melting point [°C]
4 | Nc1ccn([C@@H]2O[C@H](CO)[C@@H](O)[C@@H]2O)c(=O)n1 [Ara-C, cytarabine, reference compound] | 18.3 ± 0.28 | 14.9 ± 0.64 | 18.2 ± 0.39 | 
5 | Cc1cnc2c(c1)/C(=N/N=C1\C(=O)Nc3ncc(Cl)cc31)C(=O)N2 [Compound 1] | > 100 | 55.8 ± 2.67 | 42.3 ± 1.89 | 174.5
6 | CN1C(=O)/C(=N\N=C2/C(=O)N(Cc3ccccc3)c3ncccc32)c2cccnc21 [Compound 4] | > 100 | 85.8 ± 2.96 | > 100 | 214.3
